Assay results from PubChem BioAssay AID248 (DTP/NCI, 2004).
Where “and” joins values, the source holds several entries; their conditions need not be identical. Equal values may be shown once. Toxic doses and inconclusive results are not listed. Peptide text beside a SMILES is read from it. * marks the point of attachment. Cbz = O=C(OCc1ccccc1)*; Bn = c1ccc(C*)cc1

System: L1210 leukemia ip in BDF1 mice, survival T/C
Assay: NCI In Vivo Anticancer Drug Screen. Data for tumor model L1210 Leukemia (intraperitoneal) in B6D2F1 (BDF1) mice
Conditions: endpoint: mean survival time, higher = longer survival
Outline: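 Each compound was tested against a transplantable tumor grown in mice. The endpoint was survival, with treated animals benchmarked against vehicle controls as a simple ratio.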

[1] = dose: 100.0 mg/kg/injection, schedule: Q01DX001 (ip), vehicle: Klucel (hydroxypropylcellulose) (HPC)
[2] = dose: 100.0 mg/kg/injection, schedule: Q01DX009 (ip), vehicle: Klucel (hydroxypropylcellulose) (HPC)
[3] = dose: 200.0 mg/kg/injection, schedule: Q01DX001 (ip), vehicle: Klucel (hydroxypropylcellulose) (HPC)
[4] = dose: 200.0 mg/kg/injection, schedule: Q01DX009 (ip), vehicle: Klucel (hydroxypropylcellulose) (HPC)
[5] = dose: 400.0 mg/kg/injection, schedule: Q01DX001 (ip), vehicle: Klucel (hydroxypropylcellulose) (HPC)
[6] = dose: 100.0 mg/kg/injection, schedule: Q01DX009 (ip), vehicle: saline with Tween-80
[7] = dose: 100.0 mg/kg/injection, schedule: Q04DX003 (ip), vehicle: saline with Tween-80
[8] = dose: 200.0 mg/kg/injection, schedule: Q04DX003 (ip), vehicle: saline with Tween-80
[9] = dose: 400.0 mg/kg/injection, schedule: Q04DX003 (ip), vehicle: saline with Tween-80
[10] = dose: 50.0 mg/kg/injection, schedule: Q01DX009 (ip), vehicle: saline
[11] = dose: 100.0 mg/kg/injection, schedule: Q01DX009 (ip), vehicle: saline
[12] = dose: 200.0 mg/kg/injection, schedule: Q01DX009 (ip), vehicle: saline
[13] = dose: 100.0 mg/kg/injection, schedule: Q04DX003 (ip), vehicle: saline
[14] = dose: 200.0 mg/kg/injection, schedule: Q04DX003 (ip), vehicle: saline
[15] = dose: 400.0 mg/kg/injection, schedule: Q04DX003 (ip), vehicle: saline
[16] = dose: 400.0 mg/kg/injection, schedule: Q01DX009 (ip), vehicle: Klucel (hydroxypropylcellulose) (HPC)

In the case of `Cc1cc(C)c(N(C)C(=O)CCC(=O)O)c(C)c1Br`, the T/C [1] was 97 % of control, the T/C [2] was 93 % of control and the T/C [3] was 97 % of control. The T/C [4] was 93 % of control and the T/C [5] was 104 % of control.

For `CN(CCO)N=Nc1ccccc1C(N)=O`, the T/C [6] was 117 % of control, the T/C [7] was 105 % of control and the T/C [8] was 110 % of control. For the same molecule, the T/C (dose: 400.0 mg/kg/injection, schedule: Q01DX009 (ip), vehicle: saline with Tween-80) was 162 % of control and 177 % of control, the T/C [9] was 104 % of control and the T/C (dose: 600.0 mg/kg/injection, schedule: Q01DX009 (ip), vehicle: saline with Tween-80) was 176 % of control.

`CC(C)[CH2][Sn](=[O])[OH]` was tested, and the T/C [10] was 96 % of control, the T/C [11] was 100 % of control and the T/C [12] was 100 % of control.

For `CCCCCCCCCCCCCCCCOc1ccc(C)cc1`, the T/C [7] was 100 % of control, the T/C [8] was 103 % of control and the T/C [9] was 97 % of control.

`O=Cc1csc2ncccc12` was tested, and the T/C [7] was 103 % of control, the T/C [8] was 100 % of control and the T/C [9] was 105 % of control.

For `COC(=O)C1(C(=O)OC)C2CC(C)=C(C)CC21` (stereo unspecified), the T/C (dose: 25.0 mg/kg/injection, schedule: Q01DX009 (ip), vehicle: saline) was 109 % of control, the T/C [10] was 93 % of control and the T/C (dose: 100.0 mg/kg/injection, schedule: Q01DX009 (ip), vehicle: acetone) was 90 % of control. For the same molecule, the T/C [11] was 104 % of control, the T/C (dose: 200.0 mg/kg/injection, schedule: Q01DX009 (ip), vehicle: acetone) was 94 % of control and the T/C (dose: 400.0 mg/kg/injection, schedule: Q01DX009 (ip), vehicle: acetone) was 87 % of control.

With `CC(C)(C)C1CCC(S(C)(=O)=O)C(Cl)C1` (stereo unspecified) the T/C [11] was 110 % of control, the T/C [13] was 102 % of control and the T/C [12] was 106 % of control. For the same molecule, the T/C [14] was 96 % of control, the T/C (dose: 400.0 mg/kg/injection, schedule: Q01DX009 (ip), vehicle: saline) was 102 % of control and the T/C [15] was 105 % of control.

With `CNc1cc(N)ncn1` the T/C (dose: 25.0 mg/kg/injection, schedule: Q01DX Z (ip), vehicle: saline) was 90 % of control and the T/C (dose: 75.0 mg/kg/injection, schedule: Q01DX Z (ip), vehicle: saline) was 93 % of control.

For `COC(=O)C(CC(C)C)NC(=O)C(CSCc1ccccc1)NC(=O)OCc1ccccc1` (stereo unspecified) (Cbz-Cys(Bn)-Leu-OMe; configuration not given here), the T/C (dose: 100.0 mg/kg/injection, schedule: Q04DX003 (ip), vehicle: DMSO) was 102 % of control, the T/C (dose: 200.0 mg/kg/injection, schedule: Q04DX003 (ip), vehicle: DMSO) was 104 % of control and the T/C (dose: 400.0 mg/kg/injection, schedule: Q04DX003 (ip), vehicle: DMSO) was 96 % of control.

For `OC(CN1CCN(c2ccccc2)CC1)c1cc2ccccc2o1` (stereo unspecified), the T/C [7] was 104 % of control, the T/C [8] was 94 % of control and the T/C [9] was 94 % of control.

In the case of `O=C(/C=C/c1ccccc1)N/N=C/c1cccs1`, the T/C [2] was 86 % of control and the T/C [4] was 88 % of control.

With `C=CCC(CC)C(=O)O` (stereo unspecified) the T/C [11] was 104 % of control, the T/C [13] was 100 % of control and the T/C [12] was 96 % of control. For the same molecule, the T/C [14] was 97 % of control and the T/C [15] was 97 % of control.

With `O=C1CCOc2ccc3ccccc3c21` the T/C [1] was 101 % of control, the T/C [2] was 109 % of control and the T/C [3] was 98 % of control. The T/C [4] was 101 % of control, the T/C [5] was 90 % of control and the T/C [16] was 111 % of control.

With `CC(C(=O)c1ccccc1)C(O)(C(F)(F)F)C(F)(F)F` (stereo unspecified) the T/C [7] was 97 % of control, the T/C [8] was 97 % of control and the T/C [9] was 99 % of control.

In the case of `CC1(C)COC(CC2CCCCC2)=N1`, the T/C (dose: 25.0 mg/kg/injection, schedule: Q01DX009 (ip), vehicle: saline with Tween-80) was 105 % of control, the T/C (dose: 50.0 mg/kg/injection, schedule: Q01DX009 (ip), vehicle: saline with Tween-80) was 102 % of control and the T/C (dose: 50.0 mg/kg/injection, schedule: Q04DX003 (ip), vehicle: saline) was 94 % of control. The T/C [6] was 102 % of control, the T/C [13] was 91 % of control and the T/C (dose: 200.0 mg/kg/injection, schedule: Q01DX009 (ip), vehicle: saline with Tween-80) was 96 % of control. For the same molecule, the T/C [14] was 86 % of control.

With `Cc1ccc(C)c(NC(=O)Nc2ccc(S(N)(=O)=O)cc2)c1` the T/C [2] was 91 % of control, the T/C [4] was 92 % of control and the T/C [16] was 96 % of control.
